Assay [1] concerns insulin-expressing cells derived from TCB f-MΦ. Briefly: Insulin release from insulin-expressing cells derived from TCB f-MΦ (ELISA). To be noted: 1 h. Type of assay: cell-based, human. The procedure:
TPO-expanded CB f-MΦ (TCB f-MΦ) cultured in 24-well tissue culture plates (Costar, Corning, N.Y.) at 60-70% confluence was treated for 3 days with 1 μg/ml LPS+25 mM glucose in 1 ml 7% FBS-RPMI 1640 medium per well. TCB f-MΦ cultured in the same concentration of glucose served as control. Insulin release was performed as previously described with minor modifications [F. Schuit, A. De Vos, S. Farfari, K. Moens, D. Pipeleers, T. Brun, M. Prentki, Metabolic fate of glucose in purified islet cells. Glucose-regulated anaplerosis in beta cells, J. Biol. Chem. 272 (1997) 18572-18579; and N. Lumelsky, O. Blondel, P. Laeng, I. Velasco, R. Ravin, R. McKay, Differentiation of embryonic stem cells to insulin-secreting structures similar to pancreatic islets, Science 292 (2001) 1389-1394]. Cells were washed 5 times with PBS to remove the serum and then incubated with Kreb's buffer (120 mM NaCl, 5 mM KCl, 2.5 mM CaCl2, 1.1 mM MgCl2, 25 mM NaHCO3, 0.1% BSA) [N. Lumelsky, O. Blondel, P. Laeng, I. Velasco, R. Ravin, R. McKay, Differentiation of embryonic stem cells to insulin-secreting structures similar to pancreatic islets, Science 292 (2001) 1389-1394] for 30 min in the absence of glucose, at 37° C., 8% CO2 conditions. After removing the Kreb's buffer, cells were incubated with different concentration of glucose (0, 5, 10, and 25 mM) and/or other secretagogues (10 μM tolbudamide (Sigma), 500 μM diazoxide (Sigma), or 25 mM mannite (Sigma) in 300 μl Kreb's buffer/well for 1 h. Each treatment had duplicated wells. Insulin levels were monitored using an ultrasensitive human insulin enzyme-linked immunosorbent assay (ELISA) kit (Alpco Diagnostics, Windham, N.H.) following the manufacturer's protocols. Cell number/well from each treatment was finally quantified for calculating insulin level.

For assay [2], the system named is CB f-MΦ. In words: Cell proliferation of CB f-MΦ with TPO (CyQUANT Cell Proliferation Assay). The class given is cell-based, human. The procedure:
Therefore, this stage f-MΦ, at ˜80% purity, was selected to examine the effect of TPO. Cells were washed with RPMI 1640 medium three times and then incubated with different concentration of TPO, such as 80, 40, 20, 10, 5, 2.5, 1.25, 0.625, and 0 ng/ml in the 8-well Lab-Tek chamber slides (Nunc, Naperville, Ill.) at 37° C., 8% CO2 conditions. After 4 days, cell proliferation was evaluated using CyQUANT® Cell Proliferation Assay Kit (Molecular Probes, Eugene, Oreg.). Cell fluorescence was measured using a Synergy HT Multi-Detection microplate reader (Bio-Tek Instruments Inc., Winooski, Vt.) equipped with filters for ˜480 nm excitation and ˜520 nm emission. The optical values were analyzed using the manufacturer's software KC4 v3.1.

For assay [3], the system named is CB f-MΦ. In words: Immunostaining of TPO-expanded CB f-MΦ for phenotype markers. Type of assay: cell-based, human. On the procedure:
For f-MΦ expansion, the cells at 70% confluence were passaged at ratio 1:2 by pippetting and gently scraping with 100 μl tips (Rainin, Woburn, Mass.). Media were changed every 5-7 days with the fresh RPMI 1640 medium supplemented with 3.5% fetal bovine serum and 5 ng/ml thrombopoietin (TPO).

The test system of assay [4] is TCB f-MΦ. Briefly: Differentiation of f-MΦ into insulin-expressing cells with LPS and high glucose (immunostaining). Type of assay: cell-based, human. From the text:
The final insulin concentration in the culture medium was 0.196 μU/ml.

For assay [5], the system named is TCB f-MΦ. Particulars: 50 ng/ml VEGF for 5-7 days.
Experimental: The cells were incubated for 20 min at room temperature with 2.5% diluted normal horse serum (Vector Laboratories, Burlingame, Calif.) to block nonspecific staining. Cells were then incubated with primary antibodies, the isotype-matched IgG1κ (BD PharMingen, San Diego, Calif.) (as control for mouse monoclonal antibodies), and normal rabbit serum (as control for rabbit polyclonal antibodies). After staining, the slides were mounted with Mounting Medium (Vector Laboratories, Burlingame, Calif.). Cells were viewed and photographed using a Zeiss LSM 510 META confocal microscope equipped with a 25× water immersion objective (Carl Zeiss Inc.), with Argon 488 nm laser for FITC fluorochrome filtered through LP505.
The TPO-expanded CB f-MΦ was treated with 50 ng/ml VEGF (Cell Sciences Inc., Canton, Mass.) in RPMI-1640 medium supplemented with 7% heat inactivated FBS as previously described [Y. Zhao, D. Glesne, E. Huberman, A human peripheral blood monocyte-derived subset acts as pluripotent stem cells, Proc. Natl. Acad. Sci. U.S.A. 100 (2003) 2426-2431]. After 5-7 days, the treated and untreated cells were prepared for characterizing with endothelial markers, including antibodies to Flt-1, Flk-1, vWF, CD31, and incorporating Dil-Ac-LDL as previously described [D. A. Ingram, L. E. Mead, H. Tanaka, V. Meade, A. Fenoglio, K. Mortell, K. Pollok, M. J. Ferkowicz, D. Gilley, M. C.
The test system of assay [6] is Human umbilical cord blood-derived monocytes. Briefly: Generation of f-MΦ from cord blood monocytes with M-CSF (morphology, cell counting). The class given is cell-based. The procedure:
Human umbilical cord blood samples (50-100 ml/unit) were obtained from healthy donors (Life-Source Blood Services, Glenview, Ill.). The f-MΦ culture was performed as previously described using human peripheral blood (14). Briefly, purified monocytes were seeded into the 8-Well Lab-Tek II Chamber Slide (Fisher Scientific) at 1×10^5 cells/ml, 0.5 ml/well in RPMI 1640 medium supplemented with 7% fetal bovine serum (Invitrogen, Carlsbad, Calif.) and 50 ng/ml M-CSF. The purity of f-MΦ normally reached 80-90% after incubation for 10-14 days at 37° C., 8% CO2 and was then used for experiments.

[7] abbreviates: 5 ng/ml TPO, culture for 2 months.

Results on 7 molecules are retold here after patent US20070059824A1, “Human umbilical cord blood-derived pluripotent fibroblast-like-macrophages” (priority 2005, published 2007).

Take `CC1=NS(=O)(=O)c2cc(Cl)ccc2N1` [diazoxide]: the insulin release entry in assay [1] (500 μM, in the presence of 25 mM glucose) is “inhibits insulin release”.

In the case of `OC[C@@H](O)[C@@H](O)[C@H](O)[C@H](O)CO` [mannite], in assay [1] (25 mM, osmolarity control), the insulin release entry was “failed to stimulate insulin release”.

With `CCCCNC(=O)NS(=O)(=O)c1ccc(C)cc1` [tolbutamide], the insulin release entry in assay [1] (10 μM, in the presence of 5 mM glucose) was “stimulates insulin release”.

With Thrombopoietin [TPO], in the assay on CB f-MΦ [2] (TPO 2.5-5 ng/ml), the “cell number relative to TPO-untreated CB f-MΦ” value is “about 2 times” and the “cell number relative to control monocytes” value is given as about 10 times. Besides, the “proliferation of CB f-MΦ at higher dosage” value with CB f-MΦ [2] (TPO >40 ng/ml) is “inhibited the proliferation”. For the same molecule, in the assay with CB f-MΦ [3] (setting [7]), the “CD34 expression, share of cells” value is given as about 30%; the “expression of CD45, CD14, CD163 and CD117” value is given as “at the same level as parental CB f-MΦ”. The “expression of platelet and megakaryocyte markers CD41a, CD41b, CD42b” value in the assay with CB f-MΦ [3] (4th and 5th passaged cells after TPO expansion) is “not induced”.

Regarding lipopolysaccharide [LPS], the “cells expressing glucagon-like peptide 1 receptor” value in the assay with TCB f-MΦ [4] (CB f-MΦ, 50 ng/ml LPS in the presence of 25 mM glucose for 2 days) is given as “around 70%”. For the same molecule, the “cells strongly positive for insulin and C-peptide” value in the assay with TCB f-MΦ [4] (LPS 1 μg/ml in the presence of 25 mM glucose) is 85-90%.

For “vascular endothelial cell growth factor [VEGF]”, in the assay on TCB f-MΦ [5], the “expression of endothelial cell-associated markers” value was “significantly expressed Flt-1, Flk-1, vWF, and CD31”.

B1: macrophage colony-stimulating factor (protein, UniProt P09603 33-554, looked up)
Macrophage colony-stimulating …: EEVSEYCSHMIGSGHLQSLQRLIDSQMETSCQITFEFVDQEQLKDPVCYLKKAFLLVQDIMEDTMRFRDNTPNAIAIVQLQELSLRLKSCFTKDYEEHDKACVRTFYETPLQLLEKVKNVFNETKNLLDKDWNIFSKNCNNSFAECSSQDVVTKPDCNCLYPKAIPSSDPASVSPHQPLAPSMAPVAGLTWEDSEGTEGSSLLPGEQPLHTVDPGSAKQRPPRSTCQSFEPPETPVVKDSTIGGSPQPRPSVGAFNPGMEDILDSAMGTNWVPEEASGEASEIPVPQGTELSPSRPGGGSMQTEPARPSNFLSASSPLPASAKGQQPADVTGTALPRVGPVRPTGQDWNHTPQKTDHPSALLRDPPEPGSPRISSLRPQGLSNPSTLSAQPQLSRSHSSGSVLPLGELEGRRSTRDRRSPAEPEGGPASEGAARPLPRFNSVPLTDTGHERQSEGSFSPQLQESVFHLLVPSVILVLLAVGGLLFYRWRRRSHQEPQRADSPLEQPEGSPLTQDDRQVELPV
notes: Recombinant human macrophage colony-stimulating factor from Sigma
Take B1: in assay [6] (50 ng/ml M-CSF for 10-14 days), the cells elongated is given as 80-90%. For the same molecule, in assay [6] (50 ng/ml M-CSF, FIG. 1), the cell number result is “significantly increased the cell number”.
